Data on 1 compound can be found in paper PMC9720979, “Activation of Piezo1 downregulates renin in juxtaglomerular cells and contributes to blood pressure homeostasis” (Cell & Bioscience, 2022).

Molecules are shown by their SMILES.

As a reminder, the EC50 is the concentration giving half of the maximal effect.

For the assay, the target named is T1, Piezo1 (Mus musculus, UniProt E2JF22).
T1 construct: endogenous full-length channel in mouse juxtaglomerular cell line As4.1 (ATCC CRL2193); homotrimer
T1 sequence (E2JF22 whole entry): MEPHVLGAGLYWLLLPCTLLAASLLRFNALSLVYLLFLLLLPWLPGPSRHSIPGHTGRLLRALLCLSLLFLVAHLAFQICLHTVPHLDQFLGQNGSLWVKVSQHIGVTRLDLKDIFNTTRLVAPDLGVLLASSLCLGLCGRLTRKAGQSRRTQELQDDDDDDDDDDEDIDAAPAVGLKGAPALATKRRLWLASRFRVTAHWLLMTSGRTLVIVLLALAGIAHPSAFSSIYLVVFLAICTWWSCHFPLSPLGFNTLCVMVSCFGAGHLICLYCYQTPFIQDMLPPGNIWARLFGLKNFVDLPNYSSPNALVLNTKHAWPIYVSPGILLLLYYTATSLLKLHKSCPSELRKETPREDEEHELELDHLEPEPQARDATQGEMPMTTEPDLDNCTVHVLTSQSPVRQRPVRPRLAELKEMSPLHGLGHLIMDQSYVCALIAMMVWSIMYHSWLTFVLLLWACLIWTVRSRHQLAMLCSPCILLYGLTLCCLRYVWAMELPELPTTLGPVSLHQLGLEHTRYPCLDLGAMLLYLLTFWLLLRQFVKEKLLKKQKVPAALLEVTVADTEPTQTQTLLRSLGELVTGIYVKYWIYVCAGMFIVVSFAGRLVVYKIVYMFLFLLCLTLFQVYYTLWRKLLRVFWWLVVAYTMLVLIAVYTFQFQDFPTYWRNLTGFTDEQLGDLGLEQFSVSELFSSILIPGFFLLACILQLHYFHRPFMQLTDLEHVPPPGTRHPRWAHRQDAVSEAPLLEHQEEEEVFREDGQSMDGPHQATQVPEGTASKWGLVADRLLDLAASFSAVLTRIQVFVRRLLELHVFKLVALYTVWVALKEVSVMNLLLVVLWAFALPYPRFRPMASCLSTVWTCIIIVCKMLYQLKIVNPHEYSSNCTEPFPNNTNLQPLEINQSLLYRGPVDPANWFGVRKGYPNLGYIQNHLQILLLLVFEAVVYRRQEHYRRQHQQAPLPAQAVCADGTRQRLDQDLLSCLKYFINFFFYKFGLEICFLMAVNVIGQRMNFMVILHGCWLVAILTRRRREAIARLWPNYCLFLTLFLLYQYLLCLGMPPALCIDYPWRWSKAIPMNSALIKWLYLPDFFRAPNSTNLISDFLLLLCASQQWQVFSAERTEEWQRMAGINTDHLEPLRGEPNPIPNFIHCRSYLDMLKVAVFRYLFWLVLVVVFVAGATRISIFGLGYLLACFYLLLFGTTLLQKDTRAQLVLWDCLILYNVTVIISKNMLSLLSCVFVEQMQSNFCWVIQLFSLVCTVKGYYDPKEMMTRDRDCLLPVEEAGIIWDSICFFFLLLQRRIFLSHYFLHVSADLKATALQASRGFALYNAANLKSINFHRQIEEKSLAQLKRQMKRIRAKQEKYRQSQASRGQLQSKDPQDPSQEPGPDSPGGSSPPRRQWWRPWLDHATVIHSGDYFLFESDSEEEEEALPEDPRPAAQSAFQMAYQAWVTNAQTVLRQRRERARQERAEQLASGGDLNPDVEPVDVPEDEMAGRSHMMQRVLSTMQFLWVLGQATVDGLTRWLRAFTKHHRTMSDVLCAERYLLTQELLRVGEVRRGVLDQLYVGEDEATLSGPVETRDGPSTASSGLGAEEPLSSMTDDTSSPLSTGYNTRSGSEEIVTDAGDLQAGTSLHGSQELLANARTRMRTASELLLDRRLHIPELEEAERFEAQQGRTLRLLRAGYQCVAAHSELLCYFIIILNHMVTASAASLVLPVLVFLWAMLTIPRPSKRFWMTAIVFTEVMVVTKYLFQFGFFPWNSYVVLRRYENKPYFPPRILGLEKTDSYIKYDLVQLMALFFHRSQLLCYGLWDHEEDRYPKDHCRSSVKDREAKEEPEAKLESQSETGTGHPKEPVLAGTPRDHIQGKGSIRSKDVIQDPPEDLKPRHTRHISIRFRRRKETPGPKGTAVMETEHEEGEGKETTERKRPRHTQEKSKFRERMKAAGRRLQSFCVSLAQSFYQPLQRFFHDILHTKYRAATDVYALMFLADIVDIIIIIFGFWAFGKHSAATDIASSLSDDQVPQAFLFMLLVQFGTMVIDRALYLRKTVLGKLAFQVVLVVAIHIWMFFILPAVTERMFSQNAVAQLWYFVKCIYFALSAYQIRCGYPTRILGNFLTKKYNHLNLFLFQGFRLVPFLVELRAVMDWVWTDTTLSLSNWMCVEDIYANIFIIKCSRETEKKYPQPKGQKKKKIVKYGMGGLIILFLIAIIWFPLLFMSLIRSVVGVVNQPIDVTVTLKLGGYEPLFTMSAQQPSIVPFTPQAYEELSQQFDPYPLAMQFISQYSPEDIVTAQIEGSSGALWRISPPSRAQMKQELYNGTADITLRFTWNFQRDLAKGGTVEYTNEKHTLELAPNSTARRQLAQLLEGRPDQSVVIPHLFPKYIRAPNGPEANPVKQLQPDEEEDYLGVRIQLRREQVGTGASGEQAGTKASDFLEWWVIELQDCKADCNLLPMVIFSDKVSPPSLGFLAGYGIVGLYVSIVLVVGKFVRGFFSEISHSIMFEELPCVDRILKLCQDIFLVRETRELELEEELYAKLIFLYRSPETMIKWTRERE
Put plainly: Fluo-4 calcium imaging in As4.[…] cells, Hill fit. Format: cell-based. The following applies: agonist; native As4.1 cells, HBSS with extracellular Ca2+; no added modulator.

Take `Clc1cccc(Cl)c1CSc1nnc(-c2cnccn2)s1` [Yoda1]: the EC50 stood at 7.68 µM.
